US9617602B2, “Methods and compositions for determining resistance to androgen receptor therapy” (Aragon Pharmaceuticals, Inc., priority 2012, dated 2017)
Where two headings read alike, the source gives them in different places.

Key:
LNCaP cells [1] = assay: Proliferation assay (CellTiter-Glo), agonist and antagonist mode; assay type: cell-based, human
LNCaP/AR(cs) cells = assay: as above; assay type: cell-based, human
[2] = tested on: Class 2 MDV3100- and ARN-509-resistant cell lines; assay: as above; assay type: cell-based, human
[3] = tested on: Class 2 resistant cell lines; assay: Transcriptional reporter assay (probasin-luciferase); assay type: cell-based, human
Description: With the exception of the LNCaP/AR(cs)-Luc cells that contain an integrated androgen responsive reporter, cells were transiently transfected using Lipofectin® (Life Technologies) according to the manufacturer's protocol. […] Following transfection, the cells were incubated for 4 hours.
Following 48 hour incubation the medium was removed and the cells were lysed in 40 μL of lysis buffer (25 mM Tris Phosphate, 2 mM CDTA, 10% Glycerol, 0.5% Triton X-100, 2 mM DTT).

LNCaP cells [4] = assay: Endogenous gene transcriptional assay (real-time PCR of androgen responsive genes); assay type: cell-based, human; conditions: 1 nM R1881 or 30 μM compound, vehicle=1.00
Description: Total RNA was isolated using the Aurum™ total RNA isolation kit (BIO-RAD, Hercules, Calif.). RNA (1 μg) was reverse transcribed using the iScript cDNA synthesis kit (BIO-RAD, Hercules, Calif.) to produce cDNA. Real-time PCR was performed using the Applied Biosystems 7900HT instrument and SYBR Green PCR Master Mix (Applied Biosystems, Foster City, Calif.). PCR reactions were performed in 6 μL according to the manufacturer's protocol and a thermocycle protocol of 95° C. for 10 minutes followed by 40 cycles of 95° C. for 15 seconds and 58° C. for 1 minute. Androgen responsive gene (PSA, SLUG, TMPRSS2, STEAP4, FKBP5, ORM1, NOV, FASN, NKX3.1, AMIGO2, BDNF, CAMK2N1, HPGD, NCAPD3, PLD1) expression was normalized to GAPDH expression and expressed relative to vehicle treatment of the parental cell line.
Gene expression was normalized to GAPDH as described above.

[5] = tested on: LNCaP/AR(cs) xenograft tumors; assay: Tumor xenograft in castrated SHO male mice; assay type: in vivo
[6] = tested on: prostate specific antigen (PSA); assay type: in vivo
Text: Patients with mCRPC were assigned sequentially to dose levels in cohorts of 3 to 6 patients per dose level using standard 3×3 dose-escalation criteria.
Eligible patients who signed informed consent documents were initially enrolled into a dose escalation cohort where they will receive a single oral dose of ARN-509 followed by a one-week observation period (PK Week). Continuous dosing began on Cycle 1 Day 1 assuming no unacceptable toxicities were observed.
A minimum of 3 subjects at each dose level were monitored for a DLT through day 28 of Cycle 1.
The starting dose was 30 mg/day, with escalations to 60 mg, 90 mg, 120 mg, 180 mg, 240 mg, 300 mg, 390 mg, and 480 mg daily. It was anticipated that these dose levels span the anticipated pharmacologically active dose range and be within the safety margin indicated by the preclinical toxicology results.
Following the selection of 240 mg as the RP2D, additional eligible patients were enrolled in the Phase 2 portion of the study, consisting of 3 concurrent expansion cohorts at the MTD and/or RP2D to gather additional safety information and provide an initial signal of anti-tumor activity. The three expansion cohorts included:
It was expected that each patient with mCRPC would receive at least 3 cycles (12 weeks) of continuous treatment and each patient with non-metastatic CRPC will receive at least 4 cycles (16 weeks) of continuous treatment. Treatment was discontinued at any time for protocol-defined disease progression or unacceptable toxicity. Tumor evaluations were performed every 3 cycles (12 weeks) for patients with mCRPC and every 4 cycles (16 weeks) for patients with non-metastatic CRPC. Safety was assessed from the first dose through at least four weeks after the last dose or until resolution of drug-related toxicity, or when toxicity is deemed irreversible, whichever was longer.

[7] = Homo sapiens, 168 h, read-out: Antagonist Proliferation Assay (% Viability)

For `CNC(=O)c1ccc(N2C(=S)N(c3cnc(C#N)c(C(F)(F)F)c3)C(=O)C23CCC3)cc1F` [ARN-509], the viability at 0.0001 µM (LNCaP cells [1]; [7]) was less than 30%, the “Agonist Proliferation Assay (% Viability)” value (LNCaP cells [1]; [Antagonists] = 10 μM, 7 days) was “+ (‘+’ = <30)” and the viability at 0.0001 µM (LNCaP/AR(cs) cells; Homo sapiens, LNCaP/AR, 168 h, read-out: Antagonist Proliferation Assay (% Viability)) was less than 30%. The “Agonist Proliferation Assay (% Viability)” value (LNCaP/AR(cs) cells; LNCaP/AR(cs), [Antagonists] = 10 μM, 7 days) was “+ (‘+’ = <30)”, the “Agonist Proliferation Assay (% Viability)” value ([2]; Class 2, [Antagonists] = 10 μM, 7 days) was “++ (‘++’ = >30)” and the viability at 0.0001 µM [2, 7] was greater than 30%. The “Stimulation of proliferation in Class 2 cell lines” value ([2]; agonist mode) was “can stimulate proliferation”, the “Antagonism of androgen dependent growth of Class 2 resistant lines” value ([2]; antagonist mode) was “only partially antagonized” and the “Agonist activity in probasin-luciferase reporter assay, Class 2 resistant cells” value [3] was “no agonist activity”. For the same compound, the “Agonist Transcriptional Reporter Assay (% Max Activity)” value ([3]; Class 2, [Antagonists] = 50 μM) was “+ (‘+’ = <5)”, the “Antagonist Transcriptional Reporter Assay (% Max Activity)” value ([3]; Class 2, [Antagonists] = 50 μM in presence of R1881) was “+ (‘+’ = <5)” and the AMIGO2 gene expression (LNCaP cells [4]) was 1.12. It also gave a BDNF gene expression (LNCaP cells [4]) of 1.09, a CAM2KN1 gene expression (LNCaP cells [4]) of 1.17 and an FASN gene expression (LNCaP cells [4]) of 1.34. The FKBP5 gene expression (LNCaP cells [4]) was 0.99, the HPGD gene expression (LNCaP cells [4]) was 1.48 and the NKX3.1 gene expression (LNCaP cells [4]) was 0.90. For the same compound, the NOV gene expression (LNCaP cells [4]) was 1.73, the ORM1 gene expression (LNCaP cells [4]) was 0.71 and the PLD1 gene expression (LNCaP cells [4]) was 1.09. The PSA gene expression (LNCaP cells [4]) was 0.66, the SLUG gene expression (LNCaP cells [4]) was 1.27 and the STEAP4 gene expression (LNCaP cells [4]) was 0.78. For the same compound, the TMPRSS2 gene expression (LNCaP cells [4]) was 0.77, the “Effect on LNCaP/AR(cs) xenograft tumors (Example 1)” value ([5]; 30 mg/kg QD orally, castrated SHO mice, initial response) was “induced tumor regression” and the “Anti-tumor activity in the LNCaP/AR(cs) model (Example 14)” value ([5]; 30 mg/kg/day oral gavage, castrate male mice) was “robust anti-tumor activity”. For the same compound, the “PSA, Patient 10” value ([6]; Cycle 4) was 102 % of TO, the “PSA, Patient 13” value ([6]; Cycle 4) was 16.2 % of baseline and the “PSA decline from baseline, Patient 7” value ([6]; Cycle 4, 8 and 10) was greater than 90%. The “PSA below study start, Patient 13” value ([6]; Cycle 11 and 12) was greater than 60%, the “12 week PSA Response” value ([6]; Patient 1) was 30.49 and the “PSA at Time of BEAMing Analysis [Percent of Baseline]” value (“PSA at Time … [Percent of Baseline]” below) ([6]; Patient 1, Treatment Cycle 19) was 195.4% of Baseline. The “12 week PSA Response” value ([6]; Patient 2) was −61.8, the “PSA at Time … [Percent of Baseline]” value ([6]; Patient 2, Treatment Cycle 10) was 337.08% of Baseline and the “12 week PSA Response” value ([6]; Patient 3) was 22.7. The “PSA at Time … [Percent of Baseline]” value ([6]; Patient 3, Treatment Cycle 4) was 122% of Baseline, the “12 week PSA Response” value ([6]; Patient 4) was 12.4 and the “PSA at Time … [Percent of Baseline]” value ([6]; Patient 4, Treatment Cycle 5) was 134% of Baseline. The “12 week PSA Response” value ([6]; Patient 5) was −70.65, the “PSA at Time … [Percent of Baseline]” value ([6]; Patient 5, Treatment Cycle 8) was 16% of Baseline and the “12 week PSA Response” value ([6]; Patient 6) was −90.02. For the same compound, the “PSA at Time … [Percent of Baseline]” value ([6]; Patient 6, Treatment Cycle 10) was 84.6% of Baseline, the “12 week PSA Response” value ([6]; Patient 7) was −98.6 and the “PSA [Percent of Day 0]” value ([6]; Patient 7, Treatment Cycle 4) was 1.4% of Day 0. The “PSA [Percent of Day 0]” value ([6]; Patient 7, Treatment Cycle 8) was 3.3% of Day 0, the “PSA [Percent of Day 0]” value ([6]; Patient 7, Treatment Cycle 10) was 5.6% of Day 0 and the “PSA [Percent of Day 0]” value ([6]; Patient 7, Treatment Cycle 15) was 41.2% of Day 0. For the same compound, the “PSA [Percent of Day 0]” value ([6]; Patient 7, Treatment Cycle 19) was 97.2% of Day 0, the “PSA [Percent of Day 0]” value ([6]; Patient 7, Treatment Cycle 22) was 281.0% of Day 0 and the “PSA at Time … [Percent of Baseline]” value ([6]; Patient 7, Treatment Cycle 22) was 281% of Baseline. For the same compound, the “12 week PSA Response” value ([6]; Patient 8) was −62.2, the “PSA at Time … [Percent of Baseline]” value ([6]; Patient 8, Treatment Cycle 16) was 10.2% of Baseline and the “12 week PSA Response” value ([6]; Patient 9) was 26.38. For the same compound, the “PSA at Time … [Percent of Baseline]” value ([6]; Patient 9, Treatment Cycle 7) was 185% of Baseline, the “12 week PSA Response” value ([6]; Patient 10) was 2.33 and the “PSA [Percent of Day 0]” value ([6]; Patient 10, Treatment Cycle 4) was 102% of Day 0. For the same compound, the “PSA [Percent of Day 0]” value ([6]; Patient 10, Treatment Cycle 7) was 245% of Day 0, the “PSA at Time … [Percent of Baseline]” value ([6]; Patient 10, Treatment Cycle 7) was 245% of Baseline and the “12 week PSA Response” value ([6]; Patient 11) was −49.76. The “PSA at Time … [Percent of Baseline]” value ([6]; Patient 11, Treatment Cycle 8) was 143.88% of Baseline, the “12 week PSA Response” value ([6]; Patient 12) was −56.65 and the “PSA at Time … [Percent of Baseline]” value ([6]; Patient 12, Treatment Cycle 7) was 99.47% of Baseline. The “12 week PSA Response” value ([6]; Patient 13) was −83.79, the “PSA [Percent of Day 0]” value ([6]; Patient 13, Treatment Cycle 4) was 16.2% of Day 0 and the “PSA [Percent of Day 0]” value ([6]; Patient 13, Treatment Cycle 11) was 31.7% of Day 0. For the same compound, the “PSA at Time … [Percent of Baseline]” value ([6]; Patient 13, Treatment Cycle 11) was 31.7% of Baseline, the “PSA [Percent of Day 0]” value ([6]; Patient 13, Treatment Cycle 12) was 39.5% of Day 0 and the “12 week PSA Response” value ([6]; Patient 14) was −43.21. The “PSA at Time … [Percent of Baseline]” value ([6]; Patient 14, Treatment Cycle 11) was 150.5% of Baseline, the “12 week PSA Response” value ([6]; Patient 15) was 164.14 and the “PSA at Time … [Percent of Baseline]” value ([6]; Patient 15, Treatment Cycle 3) was 220% of Baseline. The “12 week PSA Response” value ([6]; Patient 16) was 89.09, the “PSA at Time … [Percent of Baseline]” value ([6]; Patient 16, Treatment Cycle 4) was 189% of Baseline and the “12 week PSA Response” value ([6]; Patient 17) was −45.86. For the same compound, the “PSA at Time … [Percent of Baseline]” value ([6]; Patient 17, Treatment Cycle 4) was 54.14% of Baseline, the “12 week PSA Response” value ([6]; Patient 18) was −95.65 and the “PSA at Time … [Percent of Baseline]” value ([6]; Patient 18, Treatment Cycle 6) was 7.34% of Baseline. For the same compound, the “12 week PSA Response” value ([6]; Patient 19) was −71.19, the “PSA at Time … [Percent of Baseline]” value ([6]; Patient 19, Treatment Cycle 11) was 196.86% of Baseline and the “12 week PSA Response” value ([6]; Patient 20) was −30.88. For the same compound, the “PSA at Time … [Percent of Baseline]” value ([6]; Patient 20, Treatment Cycle 21) was 89.3% of Baseline, the “12 week PSA Response” value ([6]; Patient 21) was −74.43 and the “PSA at Time … [Percent of Baseline]” value ([6]; Patient 21, Treatment Cycle 10) was 46.91% of Baseline. For the same compound, the “12 week PSA Response” value ([6]; Patient 22) was −82.7, the “PSA at Time … [Percent of Baseline]” value ([6]; Patient 22, Treatment Cycle 25) was 0.19% of Baseline and the “12 week PSA Response” value ([6]; Patient 23) was 97.78. The “PSA at Time … [Percent of Baseline]” value ([6]; Patient 23, Treatment Cycle 8) was 222.46% of Baseline, the “12 week PSA Response” value ([6]; Patient 24) was −74.86 and the “PSA at Time … [Percent of Baseline]” value ([6]; Patient 24, Treatment Cycle 25) was 4.89% of Baseline. The “12 week PSA Response” value ([6]; Patient 25) was −30.07, the “PSA at Time … [Percent of Baseline]” value ([6]; Patient 25, Treatment Cycle 12) was 161% of Baseline and the “12 week PSA Response” value ([6]; Patient 26) was 96.51. The “PSA at Time … [Percent of Baseline]” value ([6]; Patient 26, Treatment Cycle 5) was 214.85% of Baseline, the “12 week PSA Response” value ([6]; Patient 27) was −0.89 and the “PSA at Time … [Percent of Baseline]” value ([6]; Patient 27, Treatment Cycle 13) was 20.69% of Baseline. The “12 week PSA Response” value ([6]; Patient 28) was −33.59, the “PSA at Time … [Percent of Baseline]” value ([6]; Patient 28, Treatment Cycle 10) was 126% of Baseline and the “12 week PSA Response” value ([6]; Patient 29) was −58.44. The “PSA at Time … [Percent of Baseline]” value ([6]; Patient 29, Treatment Cycle 13) was 105% of Baseline, the “Patients exhibiting a 12 week ≧50% decline in PSA compared to baseline” value ([6]; across all dose groups) was 14/30 and the “Recommended Phase 2 dose (RP2D)” value ([6]; human, in vivo, po, 28 days) was 240 mg.
